Assay results taken from US10406191B2, “Compounds, extracts and methods from chinese medicinal herb sophora flavescens that inhibit airway contraction” (priority 2013, dated 2019).
“Also recorded” adds a separate entry of the source. Counter-ions that a name gives are not always drawn.

Experiments:
[1] = tested on: airway smooth muscle (ASM) in tracheal rings from OVA sensitized/challenged mice; experiment: Inhibition of acetylcholine-induced ASM contraction in tracheal rings (ex vivo myography, 30 min pretreatment); set-up: species or system BALB/c mice; conditions: for Ach-induced contraction (10-4 M Ach, percent of 60 mM KCL): 10 μg/ml (Matrine 40 μM, Sophocarpine 40 μM, Oxymatrine 37 μM); for Ach-induced contraction (10-4 M Ach, percent of 60 mM KCL) / ASM contraction to acetylcholine: 30 min pretreatment; for Ach-induced contraction (10-4 M Ach, percent of 60 mM KCL) / relative potency among the matrine type alkaloids: FIGS. 12, 13; for relative potency among the matrine type alkaloids: 10 μg/ml; for ASM contraction to acetylcholine: isolated compound at 6.0 μg/ml, FIG. 6A/6B
Description: To determine which herbal constituents in ASHMI™ have a direct inhibitory effect on ASM contraction, an asthmatic mouse model was induced by ovalbumin (OVA) sensitization and challenge as described previously (Zhang et al., 2010). Tracheal rings from asthmatic mice were treated with an aq. extract of ASHMI™ (100 μg/ml), or individual herb aq. extracts, G. lucidum (35 μg/ml), S. flavescens (45 μg/ml) and G. uralenisis (20 μg/ml), for 30 min prior to ex vivo acetylcholine provocation. The ASHMI™ concentration was based on our previous publication (Zhang et al., 2010). Concentrations of individual herb extracts were equivalent to their individual concentrations in ASHMI™.
Balb/c mice were sensitized by intraperitoneal (i.p.) injection of 200 μg OVA plus 2 mg of aluminum hydroxide (alum) in 400 μl of PBS on days 0 and 7. Mice were challenged intratracheally (i.t.) with 100 μg of OVA in 50 μl of PBS weekly for 2 weeks (days 14 and 21). Mice were challenged i.t. once daily with 100 μg of OVA (50 μl) on 2 consecutive days (days 28 and 29) 48 hr before sacrifice and tissue harvesting.
Forty-eight hrs after the last i.t. OVA challenge, mice were sacrificed and tracheas were excised and cut into 3 tracheal rings as previously described. Each tracheal ring was attached to a pair of mounting pins in the organ chamber of a Myograph System Model 610M system (AD Instruments, Denver, Colo.) and bathed in a chamber containing physiological salt solution (PSS (In g/L—NaCl: 6.95, KCl: 0.35, MgSO4.7H2O: 0.28, KH2PO4: 0.1561, CaCl2.2H2O: 0.36, NaHCO3: 2.1, EDTA: 0.01, Glucose: 1.09, pH=7.4). All chambers were maintained at 37° C. and were continuously bubbled with 100% 02. The change of tracheal ring tension was recorded by Power Lab Chart recording software (AD Instruments). After incubation at 37° C. for 15 min at baseline tension, passive tension applied to the tracheal ring was adjusted to 1.00 mN. Following stabilization of passive tension, tracheal rings were contracted using 60 mM KCl twice, to assess ASM contractility. Tracheal rings were washed with PSS buffer 3 times and allowed to rest at 1.00 mN for 30 min after each stimulation. The individual compounds as indicated in FIG. 14 were dissolved in DMSO and then re-suspended in PBS (DMSO <0.1%). Each drug was added to the chamber at the concentrations indicated and the pre-incubation time was 30 min. Tracheal rings were then contracted with incremental doses of acetylcholine (from 10^-8 M to 10^-4 M). PBS (vehicle) treatment was used as control.

tracheal tissue (rings) = experiment: Tracheal ring viability: contractile response to KCl after washout; set-up: species or system mouse; conditions: 10 μg/ml
Description: FIG. 12. Representative real time tracing of murine tracheal ring contractions. Rings were first stimulated with 60 mM KCL to assess contractile potential. Compounds (Matrine (40 μM), Oxymatrine (37 μM), sophocarpine (40 μM) or PSS (vehicle) were added 30 minutes prior to stimulation with 10^-4 M Ach. Ring viability was tested 90 minutes after Ach washout.
We first generated a methylene chloride (MC) extract from an aq. extract of S. flavescens to obtain a flavonoid rich extract (designated MC extract, FIG. 2). […] We next generated 5 sub-fractions (MC-F1, 2, 3, 4 and 5) using preparative HPLC and tested each at 6.0 μg/ml. […] The inhibition of ASM contraction by MC-F1 was concentration-dependent (FIG. 4B) and non-toxic as contractile responses to KCl were present after buffer washings (FIG. 4C).
Having observed that Fraction 3 of S. flavescens was a potent inhibitor of Ach-stimulated tracheal contraction we tested major compounds present in this fraction in myography experiments. According to investigations using mass spectrometric techniques, the major compounds identified in SF Fraction 3 were the matrine type alkaloids-Matrine, Oxymatrine and Sophocarpine.

[2] = tested on: acetylcholine pre-contracted sensitized murine tracheal rings (ASM); experiment: Relaxation of acetylcholine pre-contracted tracheal rings; set-up: species or system mouse; conditions: for effect of co-incubation with β2-AR antagonist ICI 118,551 on relaxation: FIG. 7A/7B
Description: FIGS. 7A-7C. Relaxation effects of trifolirhizin or the β2-AR agonist fenoterol on acetylcholine pre-contracted ASM. (A). The relaxation effect of trifolirhizin on acetylcholine-stimulated tracheal rings with or without ICI 118,551 (ICI). (B). The relaxation effect of the β2-AR agonist fenoterol on acetylcholine-contracted tracheal rings with or without ICI 118,551; Relaxation is expressed as the percent of residual contractile tone remaining at 15 min after trifolirhizin or fenoterol addition. (C). Representative myography tracings of relaxation experiment using fenoterol (upper tracing), PBS control (middle tracing) or trifolirhizin- (lower tracing) treated sensitized mouse tracheal rings (***, p≤0.001 compared to PBS control). Note the magnitude of total relaxation achieved with trifolirhizin compared to the β2-AR agonist fenoterol.
The primary therapy for acute constriction of airway smooth muscle is β2-AR agonists which are inhaled for the acute relaxation of hyperresponsive airway smooth muscle. We performed studies with trifolirhizin to determine whether it could relax pre-contracted airway smooth muscle and how the magnitude of relaxation compared to a classic β2-AR agonist fenoterol. In order to investigate the relaxation effect of trifolirhizin on ASM, we tested this isolated compound on acetylcholine pre-contracted sensitized murine tracheal rings. […] The maximal relaxation was 85% of the initial contractile tone at a trifolirhzin concentration of 20 μg/ml (FIG. 7A). In parallel studies the β2-AR agonist fenoterol only achieved 25% relaxation even at the highest concentration tested (10^-5 M).

[3] = tested on: airway resistance in response to methacholine; experiment: Airway resistance to nebulized methacholine, forced oscillation technique (Flexivent); assay type: in vivo, male A/J mice; conditions: nebulized 25 ul of 60 ug/ml, 15 minutes before nebulized methacholine; N=3; FIG. 15
Description: FIG. 15: Airway resistance in male A/J 20 g mice pretreated with nebulization of vehicle (25 ul 0.3% DMSO) or trifolirhizin (25 ul of 60 ug/ml) 15 minutes before nebulized methacholine as measured by the forced oscillation technique (Flexivent, Scireq). N=3.

O=C1CCC[C@@H]2[C@H]3CCC[N+]4([O-])CCC[C@@H](CN12)[C@@H]34 (stereo partly shown) [Oxymatrine]
effect of Indomethacin on the suppressive effect on tracheal contractility [1]: inhibited by Indomethacin
Ach-induced contraction (10-4 M Ach, percent of 60 mM KCL) [1]: inhibited Ach-induced contraction
relative potency among the matrine type alkaloids [1]: weakest inhibitor of contraction

COc1ccc(-c2coc3cc(O)ccc3c2=O)cc1O [3′,7-dihydroxy-4′-methoxy-isoflavone]
ASM contraction to acetylcholine [1]: had no effect on ASM contraction

O=C1CCC[C@@H]2[C@H]3CCCN4CCC[C@@H](CN12)[C@@H]34 [Matrine]
effect of Indomethacin on the suppressive effect on tracheal contractility [1]: inhibited by Indomethacin
Ach-induced contraction (10-4 M Ach, percent of 60 mM KCL) [1]: inhibited Ach-induced contraction
relative potency among the matrine type alkaloids [1]: most potent; also recorded: more effective than Oxymatrine
toxicity to tracheal tissue (response to KCL 90 minutes after washout) (tracheal tissue (rings)): did not exhibit toxicity to tracheal tissue

CC(Cc1ccc(O)cc1)NCC(O)c1cc(O)cc(O)c1 (stereo not shown) [fenoterol, fenoterol hydrobromide, reference compound]
effect of co-incubation with β2-AR antagonist ICI 118,551 on relaxation [2]: completely blocked
relaxation achieved ([2]; highest concentration tested (10^-5 M), parallel studies, FIG. 7B): 25%
time course of relaxation effect ([2]; increasing time of incubation): slowly lost its effect

C[C@@H]1C[C@H]2[C@@H]3CCC4=CC(=O)C=C[C@]4(C)[C@@]3(F)[C@@H](O)C[C@]2(C)[C@@]1(O)C(=O)CO [Dexamethasone, dexamethasone, reference compound]
acetylcholine-induced ASM contractions ([1]; 10 μM acute pretreatment, FIG. 6D): did not inhibit

O=C1C=CC[C@@H]2[C@H]3CCCN4CCC[C@@H](CN12)[C@@H]34 [Sophocarpine]
effect of Indomethacin on the suppressive effect on tracheal contractility [1]: inhibited by Indomethacin
Ach-induced contraction (10-4 M Ach, percent of 60 mM KCL) [1]: inhibited Ach-induced contraction
relative potency among the matrine type alkaloids [1]: more effective than Oxymatrine

OC[C@H]1O[C@@H](Oc2ccc3c(c2)OC[C@H]2c4cc5c(cc4O[C@@H]32)OCO5)[C@H](O)[C@@H](O)[C@@H]1O [trifolirhizin]
acetylcholine-induced contraction ([1]; concentrations lower than 6.0 μg/ml, FIG. 6B): not at lower concentrations
ASM contraction to acetylcholine [1]: significantly inhibited acetylcholine-induced contraction
effect of β2-AR antagonist ICI 118,551 on the compound's blockade of acetylcholine contraction ([1]; trifolirhizin 6.0 μg/ml with ICI 118,551 150 μM, 30 min preincubation, FIG. 6C): had no effect; also recorded: did not block the effect
maximal relaxation (of the initial contractile tone) ([2]; 20 μg/ml, 10^-5 M acetylcholine pre-contraction, FIG. 7A): 85%
effect of co-incubation with β2-AR antagonist ICI 118,551 on relaxation [2]: without effect
relaxation of pre-contracted tracheal rings, dose dependence ([2]; rings stimulated by 10^-5 M acetylcholine, FIG. 7A): dose-dependent manner
airway resistance in response to methacholine [3]: significantly attenuated increased airway resistance
